Assay results as given in the supplement of paper PMC5908809.

How the values were obtained:
[1] = tested on: normal NK cells expanded with K562-aAPC; assay: percent inhibition of viability; higher = more inhibition; conditions: 72 h, IL-2 2.5 ng/mL
Procedure: (§1)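 Drug sensitivity and resistance testing on K562-aAPC-expanded normal NK cells: 5 concentrations (10-fold steps over a 10,000-fold range), 72 h at 37 °C, viability by CellTiter-Glo normalised to DMSO and benzethonium chloride controls; DSS from the fitted curve.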

DERL-7 (IL-2 2.5 ng/mL) [2] = assay: as above; conditions: 72 h
IMC-1 (IL-2 20 ng/mL) [3] = assay: as above; conditions: 72 h
KAI3 (IL-2 2.5 ng/mL) [4] = assay: as above; conditions: 72 h
KHYG-1 (IL-2 2.5 ng/mL) [5] = assay: as above; conditions: 72 h
NK-92 (IL-2 2.5 ng/mL) [6] = assay: as above; conditions: 72 h
NK-YS (IL-2 2.5 ng/mL) [7] = assay: as above; conditions: 72 h
NKL (IL-2 2.5 ng/mL) [8] = assay: as above; conditions: 72 h
SNK-6 (IL-2 2.5 ng/mL) [9] = assay: as above; conditions: 72 h
YT (IL-2 2.5 ng/mL) [10] = assay: as above; conditions: 72 h
[11] = tested on: normal primary NK cells, pool 1 (3 donors) (IL-2 2.5 ng/mL); assay: as above; conditions: 72 h
[12] = tested on: normal primary NK cells, pool 1 (3 donors), resting (IL-2 0 ng/mL); assay: as above; conditions: 72 h
[13] = tested on: normal primary NK cells, pool 2 (3 donors) (IL-2 2.5 ng/mL); assay: as above; conditions: 72 h
[14] = tested on: normal primary NK cells, pool 3 (3 donors) (IL-2 2.5 ng/mL); assay: as above; conditions: 72 h
[15] = tested on: normal NK cells expanded with K562-aAPC; assay: drug sensitivity score (DSS) (DSS units); higher = more sensitive; extreme values may be limits of the assay; conditions: 72 h; IL-2 2.5 ng/mL
Procedure: as §1

DERL-7 (IL-2 2.5 ng/mL) [16] = assay: as above; conditions: 72 h
IMC-1 (IL-2 20 ng/mL) [17] = assay: as above; conditions: 72 h
KAI3 (IL-2 2.5 ng/mL) [18] = assay: as above; conditions: 72 h
KHYG-1 (IL-2 2.5 ng/mL) [19] = assay: as above; conditions: 72 h
NK-92 (IL-2 2.5 ng/mL) [20] = assay: as above; conditions: 72 h
NK-YS (IL-2 2.5 ng/mL) [21] = assay: as above; conditions: 72 h
NKL (IL-2 2.5 ng/mL) [22] = assay: as above; conditions: 72 h
SNK-6 (IL-2 2.5 ng/mL) [23] = assay: as above; conditions: 72 h
YT (IL-2 2.5 ng/mL) [24] = assay: as above; conditions: 72 h
[25] = tested on: normal primary NK cells, pool 1 (3 donors) (IL-2 2.5 ng/mL); assay: as above; conditions: 72 h
[26] = tested on: normal primary NK cells, pool 1 (3 donors), resting (IL-2 0 ng/mL); assay: as above; conditions: 72 h
[27] = tested on: normal primary NK cells, pool 2 (3 donors) (IL-2 2.5 ng/mL); assay: as above; conditions: 72 h
[28] = tested on: normal primary NK cells, pool 3 (3 donors) (IL-2 2.5 ng/mL); assay: as above; conditions: 72 h

C=CCc1cccc(/C=N/NC(=O)CN2CCN(Cc3ccccc3)CC2)c1O [PAC-1] (max concentration tested 10000 nM)
percent inhibition of viability [%]
Conditions	1 nM	10 nM	100 nM	1000 nM	10000 nM
DERL-7 (IL-2 2.5 ng/mL) [2]	-1.36	2.12	-2.94	12.2	80.9
IMC-1 (IL-2 20 ng/mL) [3]	-3.49	-2.97	1.56	1.88	100
KAI3 (IL-2 2.5 ng/mL) [4]	-5.72	-3.85	4.89	62.6	96.5
KHYG-1 (IL-2 2.5 ng/mL) [5]	-1.19	-1.29	5.59	74.1	104
NK-92 (IL-2 2.5 ng/mL) [6]	-11.7	-11	17.2	50.3	103
NK-YS (IL-2 2.5 ng/mL) [7]	-1.58	-1.32	5.2	5.35	97.7
NKL (IL-2 2.5 ng/mL) [8]	-9.29	8.69	4.48	69.2	97.8
SNK-6 (IL-2 2.5 ng/mL) [9]	10.2	3.22	2.33	48.9	97.7
YT (IL-2 2.5 ng/mL) [10]	-0.7	-1.17	5.18	22.7	99
[1]	-3.35	4.92	2.56	20.9	96.8
[11]	-3.78	-2.13	-1.5	3.37	92.1
[12]	-5.08	-13.3	-0.24	-2.95	89.9
[13]	-14.6	-2.22	5.41	12	86.3
[14]	-13.1	-3.83	0.14	15.8	96

Conditions	drug sensitivity score
DERL-7 (IL-2 2.5 ng/mL) [16]	6.53
IMC-1 (IL-2 20 ng/mL) [17]	5.83
KAI3 (IL-2 2.5 ng/mL) [18]	13
KHYG-1 (IL-2 2.5 ng/mL) [19]	14.7
NK-92 (IL-2 2.5 ng/mL) [20]	12
NK-YS (IL-2 2.5 ng/mL) [21]	6.2
NKL (IL-2 2.5 ng/mL) [22]	13.9
SNK-6 (IL-2 2.5 ng/mL) [23]	11.3
YT (IL-2 2.5 ng/mL) [24]	9.03
[15]	8.67
[25]	5.57
[26]	4.76
[27]	6.79
[28]	7.93
